Measured values as given in patent US20240156717A1, “COMPOSITION FOR ENHANCING SKIN WHITENING EFFECT ACCORDING TO AUTOPHAGY ACTIVITY WITH NYPA FRUTICANS EXTRACT AS AN ACTIVE INGREDIENT” (KYUNGPOOK NATIONAL UNIVERSITY INDUSTRY - ACADEMIC …, priority 2022, published 2024).

How the values were obtained:
Type in all cases: cell-based
[1] = tested on: melanogenesis-related genes (TYR, TYRP-1, TYRP-2, MITF, MC1R) in mouse melanocytes (Melan-a); test: Melanogenesis inhibitory effect (RT-PCR), melanogenesis-related mRNA expression; conditions: IBMX treatment alone, FIG. 3
Protocol: (§1) Mouse melanocytes (Melan-a) were inoculated into a 24-well plate at 1×10^5 cells/mL and cultured overnight. Thereafter, the medium was replaced with a new medium containing 100 μM IBMX (melanogenesis promoter) and 10 μg/mL and 100 μg/mL of the Nypa fruticans extract of the present disclosure, and reacted for 72 hours, and the existing medium was washed. Thereafter, the cells were washed twice with PBS and dissolved in 1 N NaOH.
In melanogenesis, tyrosinase (TYR), tyrosinase-related protein-1 (TYRP-1) and tyrosinase-related protein-2 (TYRP-2) were key factors. […] In the experiment, phosphorylated CREB was evaluated as a transcription factor and melanogenesis-related genes such as tyrosinase, TYRP-1, TYRP-2, MITF, and MC1R in mouse melanocytes (Melan-a) to confirm a melanogenesis inhibitory effect.
Total RNA (2 μg) was extracted from the mouse melanocytes (Melan-a) using TRIzol (Invitrogen Co., Carlsbad, CA, USA). […] Quantification of bands was calculated using Image Lab™ software version 5.2.1 (Bio-Rad Laboratories, CA, USA).

[2] = tested on: Mouse melanocytes (Melan-a); test: Melanin content analysis in IBMX-treated melanocytes; conditions: 72 hours, FIG. 2
Protocol: as §1
The melanin content was analyzed at 405 nm with a spectrophotometer, and arbutin was used as a positive control group.

[3] = tested on: melanogenesis-related proteins (TYR, TYRP-2, MITF) in mouse melanocytes (Melan-a); test: Melanogenesis inhibitory effect (Western blot), melanogenesis-related protein expression; conditions: IBMX treatment alone, FIG. 4
Protocol: as §1
Mouse melanocytes (Melan-a) were lysed with a RIPA buffer (ELPIS Biotech. Inc., Korea) containing protease inhibitor cocktail I (P8340; Sigma-Aldrich Korea) and phosphatase inhibitor cocktail II (P5726; Sigma-Aldrich Korea) and the extracted proteins were quantified using a Bradford protein method. Each protein was separated by 10% SDS-PAGE, and then transferred to a nitrocellulose (NC) membrane (0.45 μm; 1620115; Bio-Rad, Munich, Germany) and blocked with 5% skim milk or BSA in TBST for 1 hour. The membrane was cultured overnight with primary antibodies at 4° C. The membrane was washed four times at 15-minute intervals, and then reacted with anti-mouse or rabbit IgG-HRP as a secondary antibody. The proteins were detected using the ECL Solution System (ChemiDoc™ XRS+; Bio-Rad), and protein bands were quantified using Image Lab™ software (Bio-Rad Laboratories, CA, USA).

[4] = tested on: Mouse melanocytes (Melan-a); test: Melanin content with rapamycin (autophagy inducer) or bafilomycin (autophagy inhibitor); conditions: bafilomycin (autophagy inhibitor) treatment, FIG. 8
Protocol: Mouse melanocytes (Melan-a) were inoculated into a 24-well plate at 1×10^5 cells/mL and cultured overnight. Thereafter, the medium was replaced with a new medium containing 100 μM IBMX (melanogenesis promoter) and 10 μg/mL and 100 μg/mL of the Nypa fruticans extract of the present disclosure, and reacted for 72 hours. Thereafter, the cells were treated with rapamycin (autophagy inducer) or bafilomycin (autophagy inhibitor), and the melanin content was evaluated.

Question: Which results are given for `CC(C)Cn1c(=O)n(C)c(=O)c2[nH]cnc21` [IBMX]?
Answer: melanogenesis-related mRNA expression [1]: increased; increase of melanin content compared to IBMX-untreated control group ([2]; 100 μM IBMX, absorbance 405 nm): about 1.5 times; melanogenesis-related protein levels [3]: increased

Question: `OC[C@H]1O[C@@H](Oc2ccc(O)cc2)[C@H](O)[C@@H](O)[C@@H]1O` [arbutin] was tested. Which “melanin content reduction effect” value ([2]; IBMX-treated Melan-a, extract 100 μg/mL, arbutin positive control) did it give?
Answer: melanin content reduction effect

Question: How did the “effect on melanin content” value [4] turn out when `CO/C1=C\C(C)=C\[C@@H](C)[C@@H](O)[C@@H](C)C/C(C)=C/C=C/[C@H](OC)[C@@H]([C@@H](C)[C@@H](O)[C@H](C)[C@@]2(O)C[C@@H](O)[C@H](C)[C@@H](C(C)C)O2)OC1=O` [bafilomycin] was run?
Answer: did not affect
